Experimental data as given in ChEMBL document CHEMBL6078719, “Discovery of acetohydroxyacid synthase inhibitors as anti-tuberculosis lead compounds from natural products” (Bioorg Med Chem, 2025).
Converted amounts (≈) assume the structure as drawn. The source made the active and inactive calls. No cut-off for these calls is given here.

Tests used:
[1] = Selectivity index, ratio of IC50 for cytotoxicity against human THP-1 cells to MIC90 for antimycobacterial activity against Mycobacterium tuberculosis; format: toxicity, cell-based; settings: read-out: Selectivity Index
[2] = Inhibition of Mycobacterium tuberculosis Acetohydroxy acid synthase using pyruvate as substrate at 40 uM incubated for 10 mins followed by substrate addition by colorimetric assay relative to control
[3] = tested on: Mycobacterium tuberculosis; assay: Binding affinity to Mycobacterium tuberculosis Acetohydroxy acid synthase assessed as change in enthalpy by isothermal titration calorimetry
[4] = tested on: Mycobacterium tuberculosis; assay: Antimycobacterial activity against Mycobacterium tuberculosis assessed as inhibition of bacterial growth; format: functional
[5] = tested on: Mycolicibacterium smegmatis; assay: Synergistic antibacterial activity against Mycobacterium smegmatis assessed as inhibition of bacterial growth incubated for 3 days in presence of rifampicin by alamar blue staining based assay; format: functional, organism-based; settings: time 3.0 day
[6] = tested on: Mycobacterium tuberculosis; assay: Antibacterial activity against Mycobacterium tuberculosis assessed as inhibition of bacterial growth incubated for 3 days by alamar blue staining based assay; format: functional; settings: 72 h, time 3 day
[7] = tested on: Mycobacterium tuberculosis; assay: Binding affinity to Mycobacterium tuberculosis Acetohydroxy acid synthase assessed as gibbs free energy change by isothermal titration calorimetry
[8] = Inhibition of Mycobacterium tuberculosis Acetohydroxy acid synthase using pyruvate as substrate incubated for 10 mins followed by substrate addition by colorimetric assay
[9] = Cytotoxicity against human THP-1 cells incubated for 48 hrs by CCK8 assay; format: toxicity, cell-based
[10] = tested on: Mycolicibacterium smegmatis; assay: Antibacterial activity against Mycobacterium smegmatis assessed as inhibition of bacterial growth incubated for 3 days by alamar blue staining based assay; format: functional; settings: 72 h, time 3 day
[11] = tested on: Mycobacterium tuberculosis; assay: Synergistic antibacterial activity against Mycobacterium tuberculosis assessed as inhibition of bacterial growth incubated for 3 days in presence of rifampicin by alamar blue staining based assay; format: functional, organism-based; settings: time 3.0 day
[12] = Binding affinity to Mycobacterium tuberculosis Acetohydroxy acid synthase assessed as binding constant by isothermal titration calorimetry

| Compound | selectivity ratio [1] | inhibition [2] [%] | deltaH [3] [kcal/mol] | MIC90 [4] [µM] | Activity [5] | MIC [6] [µM] | deltaG [7] [kcal/mol] | IC50 [8] [µM] | IC50 at 48 h [9] [µM] | MIC [10] [µM] | Activity [11] | Kd [12] [µM] |
| --- | --- | --- | --- | --- | --- | --- | --- | --- | --- | --- | --- | --- |
| CC1=C(O)C(=O)C=C2C1=CC=C1[C@@]2(C)CC[C@@]2(C)[C@@H]3C[C@](C)(C(=O)O)CC[C@]3(C)CC[C@]12C [CELASTROL] | < 1 | > 90 | -9.87 | 80 (≈ 36 µg/mL) | inactive | 80 (≈ 36 µg/mL) | -7.81 | 0.81 | 12.5 | 62.5 (≈ 28.2 µg/mL) | inactive | 1.9 |
| COC(=O)c1ccccc1S(=O)(=O)NC(=O)Nc1nc(C)cc(C)n1 [SULFOMETURON METHYL] | – | > 90 | – | – | – | – | – | 3.68 | – | 7.8 (≈ 2.84 µg/mL) | – | – |
| COc1ccc(-c2oc3c(CCC(C)(C)O)c(O)cc(O)c3c(=O)c2O)cc1 | – | > 90 | – | – | – | – | – | 32.4 | – | > 5000 | – | – |
| O=C(/C=C/c1ccc(O)c(O)c1/C=C/c1ccc(O)c(O)c1)O[C@H](Cc1ccc(O)c(O)c1)C(=O)O [SALVIANOLIC ACID A] | – | > 90 | – | – | inactive | 312 (≈ 155 µg/mL) | – | 0.84 | – | 125 (≈ 61.8 µg/mL) | inactive | – |
| CCCCCCCCCCCC1=C(O)C(=O)C=C(O)C1=O [EMBELIN] | – | > 90 | – | – | – | – | – | 9.46 | – | > 5000 | – | – |
